# Publication PMC11111408, “Concurrent inhibition of oncogenic and wild-type RAS-GTP for cancer therapy” (Nature, 2024)
# Like-named read-outs stand apart in the source and are kept apart here.
# System: panel of 183 cancer cell lines
# Assay: Cell panel of 183 cancer cell lines, viability (CTG) at Crown Bioscience
# Format: cell-based
# Details: Homo sapiens
# From the text: The panel consisted of cell lines with any substitution at position 12 of KRAS, NRAS or HRAS (KRAS(G12X), NRAS(G12X), HRAS(G12X)); substitutions in KRAS, NRAS or HRAS at any position other than 12, 13 and 61 (KRAS(other/VUS), NRAS(other/VUS), HRAS(other/VUS)); other oncogenic mutations in the RAS pathway (ABL1, ALK, ARAF, BRAF, CBL, EGFR, ERBB2, ERBB3, ERBB4, ERRFI1, FGFR1, FGFR2, FGFR3, FGFR4, FLT3, HRAS, IGF1R, JAK2, KIT, MAP2K1, MAP2K2, MAPK1, MET, NF1, NRAS, NTRK1, NTRK2, NTRK3, PDGFRA, PTPN11, RAC1, RAF1, RASA1, RET, RIT1, ROS1 and SOS1); and no oncogenic mutations in the RAS pathway. […] Cells were incubated for 120 h, and cell viability was determined using the CellTiter-Glo Luminescent Cell Viability Assay (CTG) (Promega, G7572) according to the manufacturer’s instructions.
structure (smiles),measurement,setting,value
CCn1c(-c2cc(N3CCN(C4CC4)CC3)cnc2[C@H](C)OC)c2c3cc(ccc31)-c1csc(n1)C[C@H](NC(=O)[C@H]1[C@@H]3COC[C@@H]31)C(=O)N1CCC[C@H](N1)C(=O)OCC(C)(C)C2 [RMC-7977],EC50,"OVCAR-5, read-out: RMC-7977 EC50 (M), OVCAR5, KRAS G12V, Ovary",1.02e-09 M
same,EC50,"OVCAR-8, read-out: RMC-7977 EC50 (M), OVCAR8, KRAS P121H, Ovary",> 1e-06 M
same,EC50,"PANC-1, read-out: RMC-7977 EC50 (M), PANC1, KRAS G12D, Pancreas",1.66e-09 M
same,EC50,"PANC-03-27, read-out: RMC-7977 EC50 (M), PANC0327, KRAS G12V, Pancreas",3.39e-10 M
same,EC50,"PL45, read-out: RMC-7977 EC50 (M), PL45, KRAS G12D, Pancreas",3.31e-08 M
same,EC50,"PSN1, read-out: RMC-7977 EC50 (M), PSN1, KRAS G12R, Pancreas",3.24e-09 M
same,EC50,"PTPN11^MUT cell lines, read-out: median EC50",7.95e-09 M
same,EC50,"Panc 05.04, read-out: RMC-7977 EC50 (M), PANC0504, KRAS G12D, Pancreas",1.62e-09 M
same,EC50,"Panc1005, read-out: RMC-7977 EC50 (M), PANC1005, KRAS G12D, Pancreas",2.34e-09 M
same,EC50,"RAS pathway wild-type (WT) cell lines, read-out: median EC50",7.15e-08 M
same,EC50,"RL95-2, read-out: RMC-7977 EC50 (M), RL952, HRAS Q61H, Uterus",4.57e-09 M
same,EC50,"RT112/84, read-out: RMC-7977 EC50 (M), RT11284, FGFR fusion, Bladder",4.87e-09 M
same,EC50,"SCC-9, read-out: RMC-7977 EC50 (M), SCC9, HRAS L133R, HN/Tongue",1.23e-08 M
same,EC50,"SHP77, read-out: RMC-7977 EC50 (M), SHP77, KRAS G12V, Lung",> 1e-06 M
same,EC50,"SK-BR-3, read-out: RMC-7977 EC50 (M), SKBR3, MET amp, Breast",> 1e-06 M
same,EC50,"SK-CO-1, read-out: RMC-7977 EC50 (M), SKCO1, KRAS G12V, Large intestine/Colorectum",1.05e-09 M
same,EC50,"SK-LMS-1, read-out: RMC-7977 EC50 (M), SKLMS1, NF1 LOF, Vulva",6.33e-09 M
same,EC50,"SK-LU-1, read-out: RMC-7977 EC50 (M), SKLU1, KRAS G12D, Lung",> 1e-06 M
same,EC50,"SK-MEL-2, read-out: RMC-7977 EC50 (M), SKMEL2, NRAS Q61R, Skin",9.12e-09 M
same,EC50,"SK-N-AS, read-out: RMC-7977 EC50 (M), SKNAS, NRAS Q61K, Brain&Nerves",1.91e-09 M
same,EC50,"SK-N-FI, read-out: RMC-7977 EC50 (M), SKNFI, RAS pathway WT, Brain&Nerves",3.82e-08 M
same,EC50,"SK-N-SH, read-out: RMC-7977 EC50 (M), SKNSH, NRAS Q61K, Brain&Nerves",2.4e-07 M
same,EC50,"SK-OV-3, read-out: RMC-7977 EC50 (M), SKOV3, RAS pathway WT, Ovary",5.38e-08 M
same,EC50,"SNU1, read-out: RMC-7977 EC50 (M), SNU1, KRAS G12D, Stomach",7.76e-09 M
same,EC50,"SNU668, read-out: RMC-7977 EC50 (M), SNU668, KRAS Q61K, Stomach",4.57e-09 M
same,EC50,"SNU-5, read-out: RMC-7977 EC50 (M), SNU5, MET amp, Stomach",3.86e-09 M
same,EC50,"SNU-387, read-out: RMC-7977 EC50 (M), SNU387, NRAS Q61K, Liver",5.01e-09 M
same,EC50,"SNU-398, read-out: RMC-7977 EC50 (M), SNU398, RAS pathway WT, Liver",> 1e-06 M
same,EC50,"SNU-601, read-out: RMC-7977 EC50 (M), SNU601, KRAS G12D, Stomach",3.09e-09 M
same,EC50,"SU-DHL-1, read-out: RMC-7977 EC50 (M), SUDHL1, ALK fusion, Blood/lymphoma",7.61e-08 M
same,EC50,"SU.86.86, read-out: RMC-7977 EC50 (M), SU8686, KRAS G12D, Pancreas",2.45e-09 M
same,EC50,"SUM-159-PT, read-out: RMC-7977 EC50 (M), SUM159PT, HRAS G12D, Breast",2.45e-09 M
same,EC50,"SW48, read-out: RMC-7977 EC50 (M), SW48, HRAS G161R, Large intestine/Colorectum",> 1e-06 M
same,EC50,"SW480, read-out: RMC-7977 EC50 (M), SW480, KRAS G12V, Large intestine/Colorectum",2.57e-09 M
same,EC50,"SW626, read-out: RMC-7977 EC50 (M), SW626, KRAS G12V, Ovary",1.82e-09 M
same,EC50,"SW684, read-out: RMC-7977 EC50 (M), SW684, NF1 LOF, Soft tissue",3.68e-08 M
same,EC50,"SW756, read-out: RMC-7977 EC50 (M), SW756, KRAS G12C, Ovary",1.17e-08 M
same,EC50,"SW780, read-out: RMC-7977 EC50 (M), SW780, FGFR fusion, Bladder",5e-09 M
same,EC50,"SW837, read-out: RMC-7977 EC50 (M), SW837, KRAS G12C, Large intestine/Colorectum",1.7e-09 M
same,EC50,"SW900, read-out: RMC-7977 EC50 (M), SW900, KRAS G12V, Lung",4.07e-09 M
same,EC50,"SW948, read-out: RMC-7977 EC50 (M), SW948, KRAS Q61L, Large intestine/Colorectum",1.45e-08 M
same,EC50,"SW 1116, read-out: RMC-7977 EC50 (M), SW1116, KRAS G12A, Large intestine/Colorectum",1.82e-08 M
same,EC50,"SW1271, read-out: RMC-7977 EC50 (M), SW1271, NRAS Q61R, Lung",2.19e-09 M
same,EC50,"SW1463, read-out: RMC-7977 EC50 (M), SW1463, KRAS G12C, Large intestine/Colorectum",7.59e-09 M
same,EC50,"SW1573, read-out: RMC-7977 EC50 (M), SW1573, KRAS G12C, Lung",> 1e-06 M
same,EC50,"SW1783, read-out: RMC-7977 EC50 (M), SW1783, RAS pathway WT, Brain&Nerves",4.53e-08 M
same,EC50,"SW1990, read-out: RMC-7977 EC50 (M), SW1990, KRAS G12D, Pancreas",1.02e-09 M
same,EC50,"SW-403, read-out: RMC-7977 EC50 (M), SW403, KRAS G12V, Large intestine/Colorectum",1.15e-09 M
same,EC50,"SW-620, read-out: RMC-7977 EC50 (M), SW620, KRAS G12V, Large intestine/Colorectum",9.55e-10 M
same,EC50,"TOV21G, read-out: RMC-7977 EC50 (M), TOV21G, KRAS G13C, Ovary",1.41e-08 M
same,EC50,"U-87 MG, read-out: RMC-7977 EC50 (M), U87MG, NF1 LOF, Brain&Nerves",2.81e-08 M
same,EC50,"U-118-MG, read-out: RMC-7977 EC50 (M), U118MG, ROS1 fusion, GBM",5.95e-08 M
same,EC50,"UMUC3, read-out: RMC-7977 EC50 (M), UMUC3, KRAS G12C, Bladder",4.17e-10 M
same,EC50,"cell lines with NF1 loss of function and PTPN11 mutations, read-out: median EC50",2.81e-08 M
same,EC50,"cell lines with mutationally activated RTKs (RTK^MUT/fusion), read-out: median EC50",6.14e-09 M
same,EC50,"cell lines with wild-type MET gene amplification (MET^AMP), read-out: median EC50",6.61e-09 M
same,EC50,"non-G12 mutant KRAS cell lines, read-out: median EC50",2.51e-08 M
same,EC50,"read-out: RMC-7977 EC50 (M), AGS, KRAS G12D, Lung",1.15e-09 M
same,EC50,"read-out: RMC-7977 EC50 (M), ASH3, NRAS Q61R, HN/Thyroid",9.77e-09 M
same,EC50,"read-out: RMC-7977 EC50 (M), HCC2279, EGFR mut, Lung",4.52e-09 M
